In patent publication US12011459B2, “Methods for manufacturing T cells by direct sorting and compositions thereof” (Immatics US, Inc., priority 2019, dated 2024):
“And” between values parts separate entries of the source, which are not always exact repeats. Equal entries are not always repeated.

Key:
PBMC = experiment: Col6A3-002 2D tetramer staining of PBMC with dasatinib treatment, flow cytometry; format: cell-based, human; conditions: for 2D PE/BV421 Tet-positive and irrelevant peptide APC tetramer-negative events: 4° C.
Description: To compare the effects of PKI and temperatures on pMHC multimer staining, healthy donor peripheral blood mononuclear cells (PBMCs) were pretreated with 50 nM Dasatinib (FIG. 21A) or untreated (FIG. 21B) and then stained with two Col6A3-002 peptide (FLLDGSANV (SEQ ID NO: 141)) (Col) tetramers (2Dtet) conjugated to streptavidin BV421 and PE, and five different irrelevant APC tetramers (peptide 1, peptide 2, peptide 3, peptide 4, and peptide 5) at either 37° C. (FIG. 21A) or room-temperature (RT) (FIG. 21B) for 30 minutes. Following tetramer staining, samples were counterstained with tetramer stabilizing antibodies staining against PE and APC at 4° C., followed by staining with anti-CD45 PE-Cy7 antibody at 4° C.
To determine which staining conditions that may provide lowest background and lowest false positive rate, PBMC were stained with or without PKI treatment, e.g., dasatinib (DAS), with or without irrelevant peptide tetramer mix at different tetramer staining temperatures (Hadrup et al., Nat. Methods, 2009, 6:520-526; the content of which is hereby incorporated by reference in its entirety). For example, PBMC cells were stained with 2D Tet (PE+BV421) in the presence or in the absence of irrelevant peptide tetramer mix, e.g., five different irrelevant peptides (e.g., Col6A3-015 (YLMDDFSSL (SEQ ID NO: 16)), MAG-003 (KVLEHVVRV (SEQ ID NO: 118)), MAGEC2-001 (TLDEKVAEL (SEQ ID NO: 161)), MXRA5-003 (LLWGHPRVALA (SEQ ID NO: 18), and MAGEA1-003 (KVLEYVIKV (SEQ ID NO: 105)) APC tetramers±DAS treatment, at 37° C. or at room temperature (RT). DAS treatments were performed at 37° C.
To investigate PBMC staining under conditions D and G, PBMC (12.5×10^6 cells/ml) obtained from 4 donors were stained±DAS treatment (50 nM, at 37° C.), Col6A3-002 BV421 tetramer (3 μg/ml) and Col6A3-002 PE Tetramer (2.5 μg/ml), fluorochrome-labeled anti-CD45 antibody, e.g., PE-Cy7 mouse anti-human CD45 (BD Biosciences), Col6A3-002 BV421 tetramer (3 μg/ml), and APC irrelevant peptides (n=5, e.g., Col6A3-015 (YLMDDFSSL (SEQ ID NO: 16)), MAG-003 (KVLEHWRV (SEQ ID NO: 118)), MAGEC2-001 (TLDEKVAEL (SEQ ID NO: 161)), MXRA5-003 (LLWGHPRVALA (SEQ ID NO: 18), and MAGEA1-003 (KVLEYVIKV (SEQ ID NO: 105)) tetramer mix (3 μg/ml) with all staining, spins, and washes at 4° C.
The experiments shown in FIGS. 37A-37D were repeated using a different fluorochrome-labeled anti-CD45 antibody, e.g., PE-Cy™7 mouse anti-human CD45 (BD Biosciences). PBMC (10×10^6 cells/nil) obtained from 4 donors were stained with or without DAS treatment (50 nM, at 37° C.), BV421 (3 μg/ml), Col6A3-002 2D Tet (PE+BV421) (2.5 μg/ml), PerCP-Cy™5.5 mouse anti-human CD45 (BD Biosciences), Col6A3-002 BV421 tetramer (3 μg/ml), and APC (n=5) irrelevant tetramer mix (3 μg/ml) with all staining, spins, and washes at 4° C.

[1] = test system: Col6A3 REP1 cells (αCol6A3 T cells); experiment: Col6A3-002 2D tetramer staining of Col6A3 REP1 cells with dasatinib treatment, flow cytometry; format: cell-based; conditions: for background staining of BV421/APC double-positive irrelevant peptide T cells (Q2): bench and centrifugation at 4° C.
Description: To determine which staining conditions that may provide higher staining index (SI), indicating better separation of cells stained positive from cells stained negative, and lower false negative rate, Col6A3 REP1 cells, which were prepared by rapid expansion protocol (REP), were stained±DAS treatment (at 37° C.), ±irrelevant peptide tetramer mix, and staining at RT or 37° C.
Staining index (SI) may be calculated by using formula (I): SI=(mean PE+mean BV421 2Dtet+)−(mean PE+mean BV421 2Dtet−)/2×(SD PE+SD BV421 2Dtet−). […] (P=0.316695), and ±irrelevant peptide tetramer mix (P=0.597223).
The estimation per 1×10^6 based on flow %, which indicates numbers of peptide-specific T cells per 1×10^6 of CD45+ cells, may be calculated by the formula: (2Dtet+%×1×10^6/100)−((2Dtet+%×1×10^6/100)×irrelevant peptide tetramer mix+%/100)). Table 14 summarizes the estimations under the staining conditions A-G. DAS treatment was performed at 37° C. for 30 minutes.

[2] = test system: αCol6A3 T cells spiked in PBMC (1:1×10^5); experiment: Col6A3-002 2D tetramer staining of αCol6A3 T cells spiked in PBMC, condition #1; format: cell-based; conditions: staining at 37° C.
Description: Condition #1: with DAS treatment+irrelevant peptide tetramer mix, staining at 37° C.
Sample #2: αCol6A3 T cells spiked in PBMC (1:1×10^5), about 2×10^6 CD45+cells acquired

[3] = test system: Col6A3 REP1 cells (αCol6A3 T cells); experiment: Col6A3-002 2D tetramer staining of Col6A3 REP1 cells with dasatinib treatment, flow cytometry; format: cell-based; conditions: Col6A3 PEP1 cells
[4] = PBMC, DAS treatment, staining at RT, with irrelevant peptide APC tetramer mix
[5] = DAS treatment, staining at 37° C., with irrelevant peptide APC tetramer mix, listed as DAS
[6] = DAS treatment, staining at RT, with irrelevant peptide APC tetramer mix
[7] = DAS treatment + irrelevant peptide tetramer mix

Q: `Cc1nc(Nc2ncc(C(=O)Nc3c(C)cccc3Cl)s2)cc(N2CCN(CCO)CC2)n1` [Dasatinib, dasatinib] was tested. Which “2D PE/BV421 Tet-positive and irrelevant peptide APC tetramer-negative events” value (PBMC; PBMC sample S1, in 1.29×10^7 lymphocytes acquired, DAS) did it give?
A: 128 events

Q: What about the “2D PE/BV421 Tet-positive and irrelevant peptide APC tetramer-negative events” value (PBMC; PBMC sample S2, in 6.09×10^6 lymphocytes acquired, DAS) of the same molecule?
A: 68 events

Q: What about the “2D PE/BV421 Tet-positive and irrelevant peptide APC tetramer-negative events” value (PBMC; PBMC sample S3, in 9.71×10^5 lymphocytes acquired, DAS) of the same molecule?
A: 23 events

Q: What about the “2D PE/BV421 Tet-positive and irrelevant peptide APC tetramer-negative events” value (PBMC; PBMC sample S4, in 5.35×10^6 lymphocytes acquired, DAS) of the same molecule?
A: 80 events

Q: What about the “2D Tet (PE+BV421) double-positive cells (Q2) of CD45+ cells” value (shortened to “2D Tet (PE+BV421) double-positive cells”) (PBMC; PBMC, 50 nM dasatinib treatment, Tet staining at 37° C., with irrelevant peptide APC tetramer mix) of the same molecule?
A: 0.027%

Q: And the “2D Tet (PE+BV421) double-positive cells” value (PBMC; PBMC, DAS 50 nM at 37° C., all staining, spins, washes at 4° C., with irrelevant mix, FIG. 37A)?
A: 4.23E-3%

Q: And the “2D Tet (PE+BV421)-positive and irrelevant peptide-negative cells in Q2 cells” value (PBMC; PBMC, DAS 50 nM, all staining, spins, washes at 4° C., FIG. 37A)?
A: 46.5%

Q: And the “2D Tet (PE+BV421) double-positive cells” value (PBMC; PBMC, DAS treatment, staining at 37° C., absence of irrelevant peptide APC tetramer mix)?
A: 0.19%

Q: What about the “APC-negative/BV421-positive cells (true Col6A3-specific T cells, Q1) in Q2 cells” value (PBMC; PBMC, DAS treatment, staining at 37° C., with irrelevant peptide APC tetramer mix) of the same molecule?
A: 0.93%

Q: And the “irrelevant peptide positive T cells in the BV421/PE double-positive (Q2) cells” value (PBMC; PBMC, DAS treatment, staining at 37° C., with irrelevant peptide APC tetramer mix, listed as DAS)?
A: 98.2% and 99.1%

Q: What about the “2D Tet (PE+BV421) double-positive cells” value (PBMC; PBMC, DAS treatment, staining at RT, absence of irrelevant peptide APC tetramer mix) of the same molecule?
A: 7.17E-3%

Q: And the “2D Tet (PE+BV421) double-positive cells” value (PBMC; [4])?
A: 8.04E-3%

Q: And the “APC-negative/BV421-positive cells (true Col6A3-specific T cells, Q1) in Q2 cells” value (PBMC; [4])?
A: about 4.76%

Q: And the “irrelevant peptide positive T cells in the BV421/PE double-positive (Q2) cells” value (PBMC; [4])?
A: 95.2%

Q: And the “final frequency: one Col Tet+ T cell in N CD45+ cells” value (PBMC; PBMC, dasatinib treatment, staining at 37° C., with irrelevant APC tetramers)?
A: 4×10^5 CD45+ cells

Q: What about the “2D PE/BV421 Tet-positive and irrelevant peptide APC tetramer-negative events” value (PBMC; PBMC, in 4.78×10^6 lymphocytes acquired, DAS) of the same molecule?
A: 94 events

Q: And the “increase of MFI” value (PBMC; in ¼ of DAS-treated samples)?
A: about 2 ×

Q: And the “2D PE/BV421 Tet-positive and irrelevant peptide APC tetramer-negative cells detected” value (PBMC; only PBMC, in 2×10^6 CD45+ cells acquired, DAS, staining at 37° C.)?
A: 5 cells

Q: What about the “irrelevant peptide positive T cells in Q2 cells” value [1, 5] of the same molecule?
A: 6.38% and 3.18%

Q: And the “staining index (SI)” value [1, 5]?
A: 19.0 and 15.6

Q: And the “2D Tet (PE+BV421) double-positive cells” value [1, 6]?
A: 55.8%

Q: What about the “APC-negative/BV421-positive cells (true Col6A3 REP1 cells, Q1) in Q2 cells” value [1, 6] of the same molecule?
A: about 78.4%

Q: What about the “irrelevant peptide positive T cells in Q2 cells” value [1, 6] of the same molecule?
A: 21.6%

Q: And the “staining index (SI)” value [1, 6]?
A: 24.0

Q: And the “Estimation per 1e6 based on flow % (peptide-specific T cells per 1×10^6 CD45+ cells)” value (“Estimation per 1e6 based on flow %” for short) ([1]; condition A: Dasatinib +, Tet stain 37, bench RT, centrifuge RT)?
A: 2.24 × 10^5 per 1e6

Q: What about the “background staining of BV421/APC double-positive irrelevant peptide T cells (Q2)” value ([1]; condition C: DAS, Tet staining at 37° C.) of the same molecule?
A: 2.01%

Q: And the “Estimation per 1e6 based on flow %” value ([1]; condition C: Dasatinib +, Tet stain 37, bench 4, centrifuge 4)?
A: 5.61 × 10^5 per 1e6

Q: And the “background staining of BV421/APC double-positive irrelevant peptide T cells (Q2)” value ([1]; condition D: DAS, Tet staining)?
A: 13.7%

Q: What about the “Estimation per 1e6 based on flow %” value ([1]; condition D: Dasatinib +, Tet stain 4, bench 4, centrifuge 4) of the same molecule?
A: 6.75 × 10^5 per 1e6

Q: What about the “background staining of BV421/APC double-positive irrelevant peptide T cells (Q2)” value ([1]; condition F: DAS, Tet staining at RT) of the same molecule?
A: 3.07%

Q: And the “Estimation per 1e6 based on flow %” value ([1]; condition F: Dasatinib +, Tet stain RT, bench 4, centrifuge 4)?
A: 6.75 × 10^5 per 1e6

Q: And the “2D PE/BV421 Tet double-positive cells (Q2) of CD45+ cells” value [2, 7]?
A: 0.035%

Q: And the “APC-negative/BV421-positive cells (true αCol6A3 T cells, Q1) in Q2 cells” value [2, 7]?
A: about 2.58%

Q: And the “BV421/APC double-positive irrelevant peptide T cells in Q2 cells” value [2, 7]?
A: 97.4%

Q: And the “one αCol6A3 T cell in N CD45+ cells” value [2, 7]?
A: 1×10^5 CD45+ cells

Q: What about the “2D PE/BV421 Tet-positive and irrelevant peptide APC tetramer-negative events” value ([2]; in 2×10^6 CD45+ cells acquired, DAS) of the same molecule?
A: 18 events

Q: And the “2D Tet (PE+BV421)-positive and irrelevant peptide-negative cells in Q2 cells” value ([3]; DAS treatment, 4° C., FIG. 39)?
A: 95.8%

Q: And the “2D Tet (PE+BV421) double-positive cells” value ([3]; DAS treatment, all staining, spins, washes at 4° C., FIG. 39)?
A: 68.9%

Q: What about the “2D PE/BV421 Tet-positive and irrelevant peptide APC tetramer-negative events” value ([3]; in 206055 lymphocytes acquired, DAS, 4° C.) of the same molecule?
A: 135941 events
